“Also recorded” adds a separate entry of the source.
Assays:
isolated rabbit hearts [1] = assay: Hemodynamic responses (heart rate, coronary flow, LVDP, AV conduction) in isolated perfused rabbit hearts, Example 1; parameters: species or system rabbit (New Zealand white); conditions: for Hemodynamics, treatment alone: SPT or DPCPX alone
Method: These solutions were then diluted in Krebs buffer to the final concentration just before the experiments started. New Zealand white rabbits of either sex, between 1.4-2.4 kg, were anesthetized with intravenous sodium pentobarbital (30 mg/kg). The neck was opened and a tracheotomy was performed. The rabbits were ventilated with 100% oxygen via a positive pressure respirator (MD industries, Mobile, Ala.). Ventilation rate was 30-35 breaths per minute, and tidal volume was approximately 15 ml. A left thoracotomy was performed in the fourth intercostal space and pericardium was opened to expose the heart. A 2-0 silk suture with an RB taper needle was passed around a branch of the left coronary artery, and the end of the silk were threaded through a small vinyl tube to form a snare. The heads were quickly excised and mounted on a Langendorff apparatus and perfused at constant pressure with Krebs buffer containing (in mM) 118.5 NaCl, 4.7 KCl, 1.2 MgSO4, 1.2 K2 PO4, 24.3 NaHCO3, 2.5 CaCl2 and 10 glucose. […] The temperature of the perfusate was maintained at 37° C. The perfusion pressure was kept at 75 mm Hg. Pacing electrodes were placed on the right atrium and all hearts were paced at 200 beats/minute with pulses of 5 volts and 4 msec duration to keep the heart rate constant. A fluid-filled latex balloon connected to a transducer via PE240 tubing was inserted into the left ventricle. Balloon volume was adjusted to set the left ventricular diastolic pressure at 10 mm Hg at the beginning of the experiment. Total coronary artery flow was measured by timed collection of buffer from the chamber into a graduated cylinder. Regional ischemia was effected by pulling the snare tight and clamping the tube with a hemostat. Global ischemia was performed by clamping the inflow tubing of the Langendorff apparatus. Reperfusion was achieved by releasing the restriction. All hearts were allowed to equilibrate for 20 minutes before the experiments were started. Heart rate (HR), coronary flow (CF) and left ventricular developed pressure (LVDP) were recorded at the point just before and at the end of each treatment with the pacing momentarily turned off. The animals were divided into 10 groups. The hearts in all groups were subjected to 30 minutes of coronary branch occlusion followed by 120 minutes of reperfusion. Control group (CON, n=10) only experienced the above-mentioned 30 minutes of regional ischemia while the preconditioned group (PC, n=12) received an additional 5 minutes of global ischemia plus 10 minutes of reperfusion prior to the 30 minute occlusion. In the adenosine group (ADO, n=6) and the APNEA group (APNEA, n=5), the hearts were exposed to 10 uM adenosine and 50 nM APNEA respectively, for 5 minutes as a substitute for ischemic preconditioning. The drug was allowed to washout for 10 minutes before the 30 minute ischemia was started. In groups receiving SPT, the blocker was included in the perfusate for 15 minutes at 100 uM starting 5 minutes before the exposure of ADO (ADO-SPT group, n=6) or APNEA (APNEA-SPT group, n=5) or 5 minutes before and after 5 minutes of preconditioning ischemia (PC-SPT group, n=5). […] All results are expressed as group mean±SEM. The differences among groups was determined by a one-way analysis of variance with a Newman-Keuls post hoc test. A value of p<0.05 was considered to be significant. In order to ensure that the adenosinergic agents were active at the concentrations employed, hemodynamic responses were measured in a separate group of animals who experienced similar surgery described above except the coronary snare was not installed and therefore the second group of animals were not exposed to ischemia. The hearts were quickly excised and mounted on the Langendorff apparatus and perfused with Krebs buffer. The depressant effect of adenosine on atrioventricular (AV) conduction time was measured at a constant rate of atrial pacing, as an index of A 1-mediated activity. […]

isolated rabbit hearts [2] = assay: Dose-response of APNEA on infarct size in isolated rabbit hearts, Example 4 (Table A)
Method: New Zealand white rabbits of either sex, between 1.4-2.4 kg, were anesthetized with intravenous sodium pentobarbital (30 mg/kg). The neck was opened and a tracheotomy was performed. The rabbits were ventilated with 100% oxygen via a positive pressure respirator (MD industries, Mobile, Ala.). Ventilation rate was 30-35 breaths per minute, and tidal volume was approximately 15 ml. A left thoracotomy was performed in the fourth intercostal space and pericardium was opened to expose the heart. A 2-0 silk suture with an RB taper needle was passed around a branch of the left coronary artery, and the end of the silk were threaded through a small vinyl tube to form a snare. The heads were quickly excised and mounted on a Langendorff apparatus and perfused at constant pressure with Krebs buffer containing (in mM) 118.5 NaCl, 4.7 KCl, 1.2 MgSO4, 1.2 K2 PO4, 24.3 NaHCO3, 2.5 CaCl2 and 10 glucose. […] The temperature of the perfusate was maintained at 37° C. The perfusion pressure was kept at 75 mm Hg. Pacing electrodes were placed on the right atrium and all hearts were paced at 200 beats/minute with pulses of 5 volts and 4 msec duration to keep the heart rate constant. A fluid-filled latex balloon connected to a transducer via PE240 tubing was inserted into the left ventricle. Balloon volume was adjusted to set the left ventricular diastolic pressure at 10 mm Hg at the beginning of the experiment. Total coronary artery flow was measured by timed collection of buffer from the chamber into a graduated cylinder. Regional ischemia was effected by pulling the snare tight and clamping the tube with a hemostat. Global ischemia was performed by clamping the inflow tubing of the Langendorff apparatus. Reperfusion was achieved by releasing the restriction. All hearts were allowed to equilibrate for 20 minutes before the experiments were started. Heart rate (HR), coronary flow (CF) and left ventricular developed pressure (LVDP) were recorded at the point just before and at the end of each treatment with the pacing momentarily turned off.
For the group to be exposed to ischemia, the silk suture under the coronary branch was tightly tied to occlude the artery at the end of each experiment, and a 0.5% suspension of fluorescent particles (1-10 um diameter from Duke Scientific Corp., Palo Alto, Calif.) were infused into the perfusate to mark the risk zone as the non-fluorescent tissue. The hearts were removed from the Langendorff apparatus, weighed and then frozen. The hearts were cut into 2 mm transverse slices. The slices were thawed and incubated in 1% triphenyl tetrazolium chloride (TTC) in pH 7.4 buffer for 20 minutes at 37° C. TTC reacts with NADH and dehydrogenase enzymes and stains all tissue still having them to a deep red color. […] After staining, the area of infarcted tissue (TTC negative tissue) and the risk zone (area lacking fluorescence under ultraviolet light) in each slice were traced. The area of infarct and risk zone were determined by planimetry of the tracing. The volume of infarcted myocardium and myocardium at risk was then calculated by multiplying the planimetered areas by the slice thickness.
In this study, applicants examined the effects of varying the dosage of APNEA on myocardial infarct size in Langendorff buffer-perfused rabbit hearts subject to 30 minutes of regional ischemia and 2 hours reperfusion. The methods utilized in this example are identical to those described in Example 1.
Six groups of hearts were studied: control untreated hearts (n=10); APNEA 0.5 nM (n=6); APNEA 5 nM (n=6); APNEA 50 nM (n=6); APNEA 500 nM (n=6); and APNEA 500 nM+DPCPX 200 nM.(n=6) In all cases, APNEA (0.5-500 nM) was infused for 5 minutes, beginning 15 minutes prior to 30 minutes of ischemia. The regional ischemia was produced by occlusion of the coronary artery, followed by 120 minutes of reperfusion.

## Nc1ncnc2c1ncn2[C@@H]1O[C@H](CO)[C@@H](O)[C@H]1O [ADO, Adenosine]
Isolated rabbit hearts [1]; 10 minutes of washout
  HR and CF effects of ADO after washout: completely disappeared
Isolated rabbit hearts [1]; ADO 10 uM, 5 minutes, increased from 7.6±0.6 ml/g/min
  Coronary flow (CF) after infusion: 10.3 ± 0.8 mL/g/min
Isolated rabbit hearts [1]; ADO 10 uM, 5 minutes, significantly decreased from 176±8 beats/min
  Heart rate (HR) after infusion: 149±6 beats/minutes

## Nc1ccc(CCNc2ncnc3c2ncn3[C@@H]2O[C@H](CO)[C@@H](O)[C@H]2O)cc1 [APNEA, N^6-(2-(4-aminophenyl)ethyl) adenosine]
Isolated rabbit hearts [1]; APNEA 50 nM
  Alteration of HR, CF or LVDP: did not significantly alter HR, CF or LVDP
Isolated rabbit hearts [1]; APNEA 50 nM, inferred from hemodynamics
  Activation of A1 or A2 adenosine receptors: neither the A1 nor A2 adenosine receptors are activated
Isolated rabbit hearts [2]; APNEA 0.5 nM
  Effect on infarct size compared to untreated control: no effect on infarct size
Isolated rabbit hearts [2]; APNEA 5 nM
  Infarct Area: 14 ± 3 % of Risk
Isolated rabbit hearts [2]; APNEA 50 nM
  Infarct Area: 14 ± 3 % of Risk
Isolated rabbit hearts [2]; APNEA 500 nM
  Infarct Area: 8 ± 1 % of Risk
Isolated rabbit hearts [2]; APNEA 500 nM + DPCPX 200 nM
  Infarct Area: 15 ± 5 % of Risk
Isolated rabbit hearts [2]; APNEA 5, 50, and 500 nM
  Effect on infarct size: reduced infarct size
Isolated rabbit hearts [2]; APNEA .5 nM, control 24 ± 1
  Infarct Area: 22 ± 5 % of Risk

## CCCn1c(=O)c2[nH]c(C3CCCC3)nc2n(CCC)c1=O [DPCPX, 8-cyclopentyl-1,3-dipropylxanthine]
Isolated rabbit hearts [1]; DPCPX 200 nM vs ADO
  Blockade of adenosine's effect on heart rate: eliminated the decrease in HR; also recorded: entirely blocked; also recorded: completely blocked
  Effect on increase in CF from ADO infusion: did not affect the increase in CF
Isolated rabbit hearts [1]
  Hemodynamics, treatment alone: only slightly affected
Isolated rabbit hearts [2]; DPCPX 200 nM + APNEA 500 nM
  Blockade of APNEA's infarct size reduction: not blocked

## Cn1c(=O)c2[nH]c(-c3ccc(S(=O)(=O)O)cc3)nc2n(C)c1=O [SPT, 8-(p-Sulfophenyl)-theophylline]
Isolated rabbit hearts [1]; SPT 100 uM vs ADO
  Blockade of CF increase from ADO infusion: abolished
  Blockade of HR decrease from ADO infusion: abolished
Isolated rabbit hearts [1]
  Hemodynamics, treatment alone: only slightly affected

From patent US5573772A, “Methods for protecting tissues and organs from ischemic damage” (priority 1994, dated 1996)
